Test results taken from PMC3419191, “Identification of Novel Piperazinylquinoxaline Derivatives as Potent Phosphoinositide 3-Kinase (PI3K) Inhibitors” (PLoS ONE, 2012).

Tests used:
PC3 = assay: MTT assay, antiproliferative activity against PC3 cells; assay type: cell-based; settings: Homo sapiens, PC-3, 72 h, mean of at least two determinations
Excerpt: (§1) All synthesized target compounds were firstly tested for their antiproliferative activity against five human cancer cell lines, PC3, A549, HCT116, HL60, and KB, using MTT assay.
(§2) Human prostate cancer PC3 cells, lung adenocarcinoma epithelial A549 cells, colon cancer HCT116 cells, promyelocytic leukemia HL60 cells and nasopharyngeal carcinoma KB cells were obtained from the cell bank of the Institute of Biochemistry and Cell Biology, Chinese Academy of Sciences (Shanghai, China). The inhibitory activity of target compounds against tested cancer cell lines was measured using the MTT assay. PC3, A549, HCT116, HL60, and KB cancer cell lines were cultured in RPMI-1640 medium (Invitrogen, Carlsbad, CA, USA) with heat-inactivated 10% fetal bovine serum, penicillin (100 units/mL) and streptomycin (100 µg/mL) and incubated in an atmosphere with 20% oxygen and 5% carbon dioxide at 37°C. All tested compounds were dissolved in DMSO at concentrations of 10.0 mg/mL and diluted to appropriate concentrations. Cells were plated in 96-well plates for 24 h and subsequently treated with different concentrations of all tested compounds for 72 h. Viable cells were determined using 3-(4,5-dimethylthiazol-2-yl)-2,5-diphenyltetrazolium bromide assay kit (MTT, Sigma) according to operation instructions provided by the manufacturer. The concentration of drug causing 50% inhibition in absorbance compared with control cells (IC50) was calculated using the software of dose-effect analysis with microcomputers.

A549 = assay: MTT assay, antiproliferative activity against A549 cells; assay type: cell-based; settings: Homo sapiens, 72 h, mean of at least two determinations
Excerpt: as §1, §2

HCT116 = assay: MTT assay, antiproliferative activity against HCT116 cells; assay type: cell-based; settings: Homo sapiens, HCT-116, 72 h, mean of at least two determinations
Excerpt: as §1, §2

HL60 = assay: MTT assay, antiproliferative activity against HL60 cells; assay type: cell-based; settings: Homo sapiens, HL-60, 72 h, mean of at least two determinations
Excerpt: as §1, §2

KB = assay: MTT assay, antiproliferative activity against KB cells; assay type: cell-based; settings: Homo sapiens, 72 h, mean of at least two determinations
Excerpt: as §1, §2

recombinant human PI3Kα = molecular target: T1, recombinant human PI3Kα (Homo sapiens, UniProt P42336); assay: Competitive fluorescence polarization (FP) assay, inhibition of PI3Kα; assay type: biochemical; settings: for Binding efficiency index (BEI): BEI = pIC50 (M)/MW (kDa), PI3Kα
T1 construct: purchased Echelon Biosciences (Salt Lake City, UT, USA) E-2000
Procedure: Selected compounds were then tested for their enzymatic inhibitory activity against PI3Kα using a competitive fluorescence polarization (FP) assay to determine the molecular target of synthesized compounds [21].
The PI3Kα inhibitory test was determined using a competitive fluorescence polarization kinase activity assay. PI3K fluorescence polarization assay kit (catalog No. K-1100) and recombinant human PI3Kα (catalog No. E-2000) were purchased from Echelon Biosciences (Salt Lake City, UT, USA). PI3K reactions were performed in 5 mM HEPES, Ph 7, 2.5 mM MgCl2, 10 mM DTT and 50 µM ATP, using diC8-phosphatidylinositol-4, 5-bisphosphate (PIP2) as the substrate, and the final reaction volumes were 10 µL. For evaluation of the PI3Kα inhibitory activity of target compounds, 50 ng enzyme and 10 µM substate were used per 10 µL reaction volume with the concentrations of inhibitors ranging from 3.2 nM to 10 µM. After incubating for 3 h at room temperature, reactions were quenched by adding chelators. A mixture of phosphoinositide binding protein was added and mixed, followed by the addition of a fluorophore-labeled phosphoinositide tracer. Samples were then mixed in 384-well black Corning nonbinding plates (Corning, NY, USA) and incubated in a dark environment for 1 h to equilibrate. Finally, polarization values were measure using red fluorophores with appropriate filters to determine the extent of enzyme activity in the reaction.

[1] = FP assay, 50 µM ATP, mean of at least two determinations

T1 sequence (P42336 whole entry): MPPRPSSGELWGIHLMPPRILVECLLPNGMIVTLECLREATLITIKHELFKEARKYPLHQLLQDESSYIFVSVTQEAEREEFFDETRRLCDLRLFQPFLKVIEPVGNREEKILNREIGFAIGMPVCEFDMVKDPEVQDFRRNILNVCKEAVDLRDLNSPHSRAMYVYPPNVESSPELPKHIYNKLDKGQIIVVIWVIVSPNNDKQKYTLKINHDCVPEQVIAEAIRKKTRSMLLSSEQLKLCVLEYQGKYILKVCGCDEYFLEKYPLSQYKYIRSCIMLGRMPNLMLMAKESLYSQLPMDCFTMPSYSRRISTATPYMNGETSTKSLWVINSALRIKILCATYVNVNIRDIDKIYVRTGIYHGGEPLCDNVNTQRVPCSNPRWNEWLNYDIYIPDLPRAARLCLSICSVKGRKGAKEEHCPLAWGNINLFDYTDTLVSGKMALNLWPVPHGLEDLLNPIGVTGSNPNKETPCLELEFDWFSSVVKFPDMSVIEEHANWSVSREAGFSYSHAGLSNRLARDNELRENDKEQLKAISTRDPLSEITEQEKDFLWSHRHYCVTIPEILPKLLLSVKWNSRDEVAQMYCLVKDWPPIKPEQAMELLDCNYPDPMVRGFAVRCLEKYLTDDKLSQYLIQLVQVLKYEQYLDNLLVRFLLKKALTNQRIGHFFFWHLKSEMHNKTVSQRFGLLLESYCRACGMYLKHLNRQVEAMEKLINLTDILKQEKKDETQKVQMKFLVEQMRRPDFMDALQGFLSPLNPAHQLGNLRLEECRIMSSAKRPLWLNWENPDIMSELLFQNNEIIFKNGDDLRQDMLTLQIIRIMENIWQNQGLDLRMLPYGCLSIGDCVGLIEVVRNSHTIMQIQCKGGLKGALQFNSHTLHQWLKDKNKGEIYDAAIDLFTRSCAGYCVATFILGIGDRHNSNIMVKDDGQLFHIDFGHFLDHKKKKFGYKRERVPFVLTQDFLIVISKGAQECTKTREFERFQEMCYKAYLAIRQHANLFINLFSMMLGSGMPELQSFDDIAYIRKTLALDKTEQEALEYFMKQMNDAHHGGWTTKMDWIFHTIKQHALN
T1 sequence (P27986 whole entry partner): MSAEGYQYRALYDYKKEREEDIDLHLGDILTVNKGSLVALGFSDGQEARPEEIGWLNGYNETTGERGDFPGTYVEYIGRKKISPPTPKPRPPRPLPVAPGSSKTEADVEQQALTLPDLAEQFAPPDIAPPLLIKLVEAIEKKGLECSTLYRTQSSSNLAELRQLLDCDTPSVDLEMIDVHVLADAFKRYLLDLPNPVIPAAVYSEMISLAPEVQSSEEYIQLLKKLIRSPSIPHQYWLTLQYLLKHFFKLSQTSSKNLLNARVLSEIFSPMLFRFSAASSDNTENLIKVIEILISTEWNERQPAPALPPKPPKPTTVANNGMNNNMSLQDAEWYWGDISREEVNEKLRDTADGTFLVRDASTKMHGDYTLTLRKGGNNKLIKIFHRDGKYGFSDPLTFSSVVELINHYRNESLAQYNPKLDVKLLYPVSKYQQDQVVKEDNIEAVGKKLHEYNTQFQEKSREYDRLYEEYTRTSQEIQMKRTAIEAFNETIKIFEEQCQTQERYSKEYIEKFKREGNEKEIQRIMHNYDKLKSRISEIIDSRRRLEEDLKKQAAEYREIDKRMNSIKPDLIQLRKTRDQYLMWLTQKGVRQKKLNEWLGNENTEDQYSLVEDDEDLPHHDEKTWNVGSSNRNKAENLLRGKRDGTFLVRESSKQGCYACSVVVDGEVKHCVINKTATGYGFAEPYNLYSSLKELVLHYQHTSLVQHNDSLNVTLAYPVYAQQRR

SMILES	IC50 (PC3)	IC50 (A549)	IC50 (HCT116)	IC50 (HL60)	IC50 (KB)	Binding efficiency index (BEI) (recombinant human PI3Kα)	IC50 (recombinant human PI3Kα; [1])	IC50 (recombinant human PI3Kα; as used for BEI, Table 5)	melting point
COc1ccc(S(=O)(=O)c2nc3ccccc3nc2N2CCNC(C)C2)cc1 (stereo not shown) [Compound 26, 2-(3-Methylpiperazin-1-yl)-3-(4-methoxyphenylsulfonyl)quinoxaline]	930 nM	1650 nM	540 nM	160 nM	8.53 µM	16.6	240 nM	240 nM	130 to 133 °C
O=S(=O)(c1ccccc1)c1nc2ccccc2nc1N1CCN(CCCN2CCOCC2)CC1 [Compound 49, 2-(4-(3-Morpholinopropyl)piperazin-1-yl)-3-(phenylsulfonyl)quinoxaline]	5120 nM	730 nM	650 nM			14.0	180 nM		
O=S(=O)(c1ccc(Br)cc1)c1nc2ccccc2nc1N1CCN(CCCN2CCOCC2)CC1 [Compound 52, 2-(4-(3-Morpholinopropyl)piperazin-1-yl)-3-(4-bromophenylsulfonyl)quinoxaline]	1190 nM	340 nM	220 nM			11.9	200 nM		
CS(=O)(=O)N1CCN(c2nc3ccccc3nc2S(=O)(=O)c2ccccc2)CC1 [Compound 39, 2-(4-(Methylsulfonyl)piperazin-1-yl)-3-(phenylsulfonyl)quinoxaline]	1070 nM	2370 nM	1210 nM			13.6	1340 nM		182 to 185 °C
O=C(c1ccc(Cl)cc1)N1CCN(c2nc3ccccc3nc2S(=O)(=O)c2ccccc2)CC1 [Compound 34, 2-(4-(4-Chlorobenzoyl)piperazin-1-yl)-3-(phenylsulfonyl)quinoxaline]	2740 nM	3860 nM	25400 nM	5840 nM	0.93 µM	11.3	2750 nM		217 to 219 °C
CS(=O)(=O)N1CCN(c2nc3ccccc3nc2S(=O)(=O)c2ccc(Br)cc2)CC1 [Compound 42, 2-(4-(Methylsulfonyl)piperazin-1-yl)-3-(4-bromophenylsulfonyl)quinoxaline]	1950 nM	1320 nM	410 nM			12.4	440 nM		194 to 196 °C
O=S(=O)(c1ccccc1)c1nc2ccccc2nc1N1CCNCC1 [Compound 19, 2-(Piperazin-1-yl)-3-(phenylsulfonyl)quinoxaline]	900 nM	12800 nM	990 nM	110 nM	8.27 µM	19.0	190 nM		
CS(=O)(=O)N1CCN(c2nc3ccccc3nc2S(=O)(=O)c2ccc(F)cc2)CC1 [Compound 43, 2-(4-(Methylsulfonyl)piperazin-1-yl)-3-(4-fluorophenylsulfonyl)quinoxaline]	3300 nM	1260 nM	330 nM			13.3	1010 nM		206 to 207 °C
O=S(=O)(c1ccccc1)c1nc2ccccc2nc1N1CCOCC1 [WR1, reference compound]	18900 nM	12600 nM	5350 nM	4470 nM		17.9			
Cc1ccc(S(=O)(=O)c2nc3ccccc3nc2N2CCNC(C)C2)cc1 (stereo not shown) [Compound 25, 2-(3-Methylpiperazin-1-yl)-3-(4-methylphenylsulfonyl)quinoxaline]	2030 nM	1600 nM	1170 nM	90 nM	9.18 µM	16.2	650 nM		136 to 138 °C
CC1CN(c2nc3ccccc3nc2S(=O)(=O)c2ccc(Br)cc2)CCN1 (stereo not shown) [Compound 27, 2-(3-Methylpiperazin-1-yl)-3-(4-bromophenylsulfonyl)quinoxaline]	600 nM	570 nM	320 nM	120 nM	9.46 µM	16.1	61 nM	61 nM	158 to 160 °C
CN1CCN(c2nc3ccccc3nc2S(=O)(=O)c2ccccc2)CC1 [Compound 14, 2-(4-Methylpiperazin-1-yl)-3-(phenylsulfonyl)quinoxaline]	2940 nM	14000 nM	2780 nM	770 nM	4.54 µM		> 10000 nM		154 to 157 °C
O=C(c1ccccc1)N1CCN(c2nc3ccccc3nc2S(=O)(=O)c2ccccc2)CC1 [Compound 29, 2-(4-Benzoylpiperazin-1-yl)-3-(phenylsulfonyl)quinoxaline]	4990 nM	5200 nM	42400 nM	7200 nM	1.22 µM		> 10000 nM		224 to 226 °C
Cc1ccc(S(=O)(=O)c2nc3ccccc3nc2N2CCN(S(C)(=O)=O)CC2)cc1 [Compound 40, 2-(4-(Methylsulfonyl)piperazin-1-yl)-3-(4-methylphenylsulfonyl)quinoxaline]	5350 nM	1930 nM	1070 nM				460 nM		
O=S(=O)(c1ccc(Br)cc1)c1nc2ccccc2nc1N1CCC(O)CC1 [WR23, reference compound]						17.0			
CC1CN(c2nc3ccccc3nc2S(=O)(=O)c2ccccc2)CCN1 (stereo not shown) [Compound 24, 2-(3-Methylpiperazin-1-yl)-3-(phenylsulfonyl)quinoxaline]	1440 nM	1360 nM	680 nM	150 nM	8.73 µM	19.7	59 nM		
CN1CCN(c2nc3ccccc3nc2S(=O)(=O)c2ccc(F)cc2)CC1 [Compound 18, 2-(4-Methylpiperazin-1-yl)-3-(4-fluorophenylsulfonyl)quinoxaline]	3090 nM	7950 nM	8210 nM	2750 nM	21.6 µM				147 to 148 °C
COc1ccc(S(=O)(=O)c2nc3ccccc3nc2N2CCN(C(C)=O)CC2)cc1 [Compound 11, 2-(4-Acetylpiperazin-1-yl)-3-(4-methoxyphenylsulfonyl)quinoxaline]	2180 nM	18600 nM	3660 nM	480 nM	10.3 µM				160 to 162 °C
Cc1ccc(S(=O)(=O)c2nc3ccccc3nc2N2CCN(S(=O)(=O)c3ccc(C)cc3)CC2)cc1 [Compound 45, 2-(4-(4-Methylphenylsulfonyl)piperazin-1-yl)-3-(4-methylphenylsulfonyl)-quinoxaline]	3480 nM	49500 nM	1920 nM	9280 nM	2.68 µM				174 to 175 °C
O=C(c1ccc(Cl)cc1)N1CCN(c2nc3ccccc3nc2S(=O)(=O)c2ccc(F)cc2)CC1 [Compound 38, 2-(4-(4-Chlorobenzoyl)piperazin-1-yl)-3-(4-fluorophenylsulfonyl)quinoxaline]	4050 nM	17700 nM	8750 nM	4440 nM	1.88 µM				214 to 215 °C
O=C(c1ccc(Cl)cc1)N1CCN(c2nc3ccccc3nc2S(=O)(=O)c2ccc(Br)cc2)CC1 [Compound 37, 2-(4-(4-Chlorobenzoyl)piperazin-1-yl)-3-(4-bromophenylsulfonyl)quinoxaline]	2890 nM	> 50000 nM	10600 nM	6110 nM	5.09 µM				214 to 216 °C
